Results on seven compounds are retold here after patent US5484911A, “Nucleoside 5'-diphosphate conjugates of ether lipids” (Health Research, Inc., priority 1993, dated 1996).

Read-outs that look alike come from different tables or passages of the source.

The EC50 is the concentration at which the effect is half-maximal. For orientation: IC50 means the concentration that inhibits the measured activity by half.

In one data set the test system is HIV-1. The data set is described as follows: microbe, parasite or virus in culture. It counts as cell-based. The conditions noted are these: for Conclusion: NCI screen conclusion, Tables 1-4; for conclusion / reported as anti-HIV drug: NCI screening results. An excerpt: (§1) FIG. 3. Anti-HIV activity of AZTDP-DL-PTBA from the National Cancer Institute Developmental Therapeutics Program In-Vitro Testing Results; NSC 648540-S/1; Plate 5440; Lab 9N; SSPL:129N; Primary Screen Assay; Test Date, Jan. 21, 1992; Solubility Ind.: 1; Report Date, Apr. 27, 1992; Cell Line, CEM-IW; Solvent: Saline<0.9% (MEDIA).
(§2) FIG. 4. Anti-HIV activity of AZddUDP-DL-PTBA from the National Cancer Institute Developmental Therapeutics Program In-Vitro Testing Results; NSC: 648541-T/1; Plate 5466; Lab 9N; SSPL: 129N; Primary Screen Assay; Test Date, Jan. 21, 1992; Solubility Ind.: 1; Report Date, Apr. 27, 1992; Cell Line: CEM-IW; Solvent: Saline<0.9% (MEDIA).
(§3) FIG. 5. Anti-HIV activity of ddCDP-DL-PTBA from the National Cancer Institute Developmental Therapeutic Program In-Vitro Testing Results; NSC: D- 652872-A/1; Plate 24; Lab 9N; Primary Screen Assay; Test Date, Jul. 23, 1992; Solubility Ind.: 1; Report Date: Aug. 7, 1992; Cell Line: CEM-IW; Solvent: Saline<0.9% (MEDIA).
(§4) FIG. 6. Anti-HIV activity of AZTDP-DL-PMA from the National Cancer Institute Developmental Therapeutics Program In-Vitro Testing Results; NSC: D- 652873-C/1; Plate 24; Lab 9N; SSPL: 129N; Primary Screen Assay; Test Date, Jul. 23, 1992; Solubility Ind.: 1; Report Date, Sep. 11, 1992; Cell Line: CEM-IW; Solvent: Saline<0.9% (MEDIA).
Anti-HIV evaluation for the compounds was performed at the National Cancer Institute, National Institute of Health and is presented in FIGS. 3-6.
(§5) The procedure is designed to detect agents acting at any stage of the virus reproductive cycle (Weislow, et al., J. Natl. Cancer Inst. 81, 577, 1989). The assay basically involves the killing of T4 lymphocytes by HIV. Small amounts of HIV are added to cells, and a complete cycle of virus reproduction is necessary to obtain the required cell killing. Agents that interact with virions, cells, or virus gene-products to interfere with viral activities will protect cells from cytolysis. Compounds that degenerate or are rapidly metabolized in the culture conditions may not show activity in this screen. All tests are compared with at least one positive (e.g., AZT-treated) control done at the same time under identical conditions.
(§6) Compound was dissolved in DMSO then diluted 1:100 in cell culture medium before preparing serial half-log10 dilutions. T4 lymphocytes (CEM cell line) were added and after a brief interval HIV-1 was added, resulting in a 1:200 final dilution of the compound. Uninfected cells with the compound served as a toxicity control, and infected and uninfected without the compound served as basic controls. Cultures were incubated at 37° C. in a 5% CO2 atmosphere for 6 days. The tetrazolium salt, XTT, was added to the wells, and cultures were incubated to allow formazan color development by viable cells. Individual wells were analyzed spectrophotometrically to quantitate formazan production, and in addition were viewed microscopically for detection of viable cells and confirmation of protective activity. Drug-treated virus-infected cells were compared with drug-treated noninfected cells and with other appropriate controls (untreated infected and untreated noninfected cells, drug-containing wells without cells, etc.) on the same plate. Data were reviewed in comparison with other tests done at the same time and a determination about activity was made.

Data set [1] in a line: Cytotoxicity to uninfected CEM cells (toxicity control of the anti-HIV assay). It counts as cell-based. The conditions noted are these: human; for CC50: CEM cells, read-out: cytotoxicity (IC50); for CC50 at 144 h: uninfected CEM-IW cells, 6 days, XTT, Tables 1-4, read-out: 1C50(Molar) (cytotoxicity).
Excerpt: as §1, §2, §3, §4, §5, §6
For orientation: Formazan colour is commonly taken as a measure of viable cells.

The subject of the next data set is HIV-infected U937. To be noted: liposomal, range over the compounds named, read-out: IC50, antiretroviral activity; cited from earlier work.
Another data set concerns HIV-infected CEM cells. The conditions noted are these: liposomal, range over the compounds named, read-out: IC50, antiretroviral activity; cited from earlier work.
Setting [2] is: Human immunodeficiency virus 1, CCRF-CEM, 144 h, read-out: EC50(Molar).
[3] abbreviates: Human immunodeficiency virus 1, CCRF-CEM, read-out: 50% of the protection (EC50).

Regarding `CCCCCCCCCCCCCCCCCCSCC(COP(=O)(O)OP(=O)(O)OC[C@H]1O[C@@H](n2ccc(=O)[nH]c2=O)C[C@@H]1N=[N+]=[N-])OC(=O)CCCCCCCCCCCCCCC` (mixture of isomers) [AZddUDP-DL-PTBA, 3'-Azido-2',3'-dideoxyuridine-5'-diphosphate-rac-1-S-octadecyl-2-O-palmitoyl-1-thioglycerol], the EC50 with HIV-1 (setting [2]) and with HIV-1 (setting [3]) was 59 µM in each case. Further, the viability at 180 µM in the data set on HIV-1 (Human immunodeficiency virus 1, CCRF-CEM, dose 1.80 × 10^-4 Molar (Tables 1, 2), read-out: INFECTED RESPONSE Percent of Control) is 103%; in data set [1] (uninfected cem cells, dose 1.80 × 10^-4 Molar (Tables 1, 2), read-out: UNINFECTED RESPONSE Percent of Control), 138%. In addition, the viability at 18 µM in the data set on HIV-1 (Human immunodeficiency virus 1, CCRF-CEM, dose 1.80 × 10^-5 Molar (Tables 1, 2), read-out: INFECTED RESPONSE Percent of Control) was 11.1%; in data set [1] (uninfected cem cells, dose 1.80 × 10^-5 Molar (Tables 1, 2), read-out: UNINFECTED RESPONSE Percent of Control), 98.6%. Besides, the viability at 1.8 µM is 4.68% with HIV-1 (Human immunodeficiency virus 1, CCRF-CEM, dose 1.80 × 10^-6 Molar (Tables 1, 2), read-out: INFECTED RESPONSE Percent of Control) and 96.6% in data set [1] (uninfected cem cells, dose 1.80 × 10^-6 Molar (Tables 1, 2), read-out: UNINFECTED RESPONSE Percent of Control). Also, the viability at 580 µM with HIV-1 (Human immunodeficiency virus 1, CCRF-CEM, dose 5.80 × 10^-4 Molar (Tables 1, 2), read-out: INFECTED RESPONSE Percent of Control) was found to be 7.96%; in data set [1] (uninfected cem cells, dose 5.80 × 10^-4 Molar (Tables 1, 2), read-out: UNINFECTED RESPONSE Percent of Control), 5.01%. Also, the viability at 58 µM is 50.6% in the data set on HIV-1 (Human immunodeficiency virus 1, CCRF-CEM, dose 5.80 × 10^-5 Molar (Tables 1, 2), read-out: INFECTED RESPONSE Percent of Control) and 107% in data set [1] (uninfected cem cells, dose 5.80 × 10^-5 Molar (Tables 1, 2), read-out: UNINFECTED RESPONSE Percent of Control). For the same compound, the viability at 5.8 µM in the data set with HIV-1 (Human immunodeficiency virus 1, CCRF-CEM, dose 5.80 × 10^-6 Molar (Tables 1, 2), read-out: INFECTED RESPONSE Percent of Control) came out at 6.2%; in data set [1] (uninfected cem cells, dose 5.80 × 10^-6 Molar (Tables 1, 2), read-out: UNINFECTED RESPONSE Percent of Control), 94.6%. Besides, the viability at 0.58 µM stood at 2.69% in the data set on HIV-1 (Human immunodeficiency virus 1, CCRF-CEM, dose 5.80 × 10^-7 Molar (Tables 1, 2), read-out: INFECTED RESPONSE Percent of Control) and 94.6% in data set [1] (uninfected cem cells, dose 5.80 × 10^-7 Molar (Tables 1, 2), read-out: UNINFECTED RESPONSE Percent of Control). In the data set on HIV-1, the Conclusion entry was “CONFIRMED ACTIVE”. In addition, the “conclusion / reported as anti-HIV drug” value in the data set on HIV-1 is listed as “moderate”. Also, the CC50 in data set [1] is 390 µM. Besides, in data set [1], the CC50 at 144 h is 590 µM.

With `CCCCCCCCCCCCCCCCCCSCC(COP(=O)(O)OP(=O)(O)OC[C@@H]1CC[C@H](n2ccc(N)nc2=O)O1)OC(=O)CCCCCCCCCCCCCCC` (mixture of isomers) [ddCDP-DL-PTBA, 2',3'-Dideoxycytidine-5'-diphosphate-rac-1-S-octadecyl-2-O-palmitoyl-1-thioglycerol], the EC50 in the data set on HIV-1 (setting [2]) and in the data set on HIV-1 (setting [3]) was 130 µM in each case. Besides, the viability at 200 µM with HIV-1 (Human immunodeficiency virus 1, CCRF-CEM, dose 2.00 × 10^-4 Molar (Table 3), read-out: INFECTED RESPONSE Percent of Control) is 78%; in data set [1] (uninfected cem cells, dose 2.00 × 10^-4 Molar (Table 3), read-out: UNINFECTED RESPONSE Percent of Control), 137%. The viability at 630 µM with HIV-1 (Human immunodeficiency virus 1, CCRF-CEM, dose 6.30 × 10^-4 Molar (Table 3), read-out: INFECTED RESPONSE Percent of Control) worked out at 98.7%; in data set [1] (uninfected cem cells, dose 6.30 × 10^-4 Molar (Table 3), read-out: UNINFECTED RESPONSE Percent of Control), 125%. In addition, the viability at 63 µM in the data set on HIV-1 (Human immunodeficiency virus 1, CCRF-CEM, dose 6.30 × 10^-5 Molar (Table 3), read-out: INFECTED RESPONSE Percent of Control) was 10.2%; in data set [1] (uninfected cem cells, dose 6.30 × 10^-5 Molar (Table 3), read-out: UNINFECTED RESPONSE Percent of Control), 130%. Besides, the Conclusion entry in the data set with HIV-1 is “CONFIRMED ACTIVE”. Besides, the “conclusion / reported as anti-HIV drug” value in the data set with HIV-1 is reported as “moderate”. In addition, in the data set with HIV-1 (ratio IC50/EC50, Tables 2-3), the “TI50(IC/EC)” value is 2.10 × 10^+1. Besides, the CC50 in data set [1] was determined as 2800 µM. Also, the CC50 at 144 h in data set [1] turned out to be 2800 µM.

In the case of `CCCCCCCCCCCCCC(=O)OCC(COP(=O)(O)OC[C@@H]1CC[C@H](n2ccc(N)nc2=O)O1)OC(=O)CCCCCCCCCCCCC` (stereo partly shown) [dimyristoylphosphatidylddC], the results for the IC50 with HIV-infected U937 and in the data set on HIV-infected CEM cells were 0.2 to 12 µM and 1.7 to 22 µM, respectively.

In the case of `CCCCCCCCCCCCCCCC(=O)OC(COCCCCCCCCCCCCCC)COP(=O)(O)OP(=O)(O)OC[C@H]1O[C@@H](n2cc(C)c(=O)[nH]c2=O)C[C@@H]1N=[N+]=[N-]` (mixture of isomers) [AZTDP-DL-PMA, 3'-Azido-3'-deoxythymidine-5'-diphosphate-rac-1-O-tetradecyl-2-O-palmitoylglycerol], the EC50 in the data set on HIV-1 (setting [3]) was 57 µM. For the same compound, the viability at 180 µM stood at 66.8% with HIV-1 (Human immunodeficiency virus 1, CCRF-CEM, dose 1.80 × 10^-4 Molar (Table 4), read-out: INFECTED RESPONSE Percent of Control) and 109% in data set [1] (uninfected cem cells, dose 1.80 × 10^-4 Molar (Table 4), read-out: UNINFECTED RESPONSE Percent of Control). Moreover, the viability at 570 µM in the data set on HIV-1 (Human immunodeficiency virus 1, CCRF-CEM, dose 5.70 × 10^-4 Molar (Table 4), read-out: INFECTED RESPONSE Percent of Control) was determined as 90.7%; in data set [1] (uninfected cem cells, dose 5.70 × 10^-4 Molar (Table 4), read-out: UNINFECTED RESPONSE Percent of Control), 109%. Also, the viability at 57 µM was 55.8% in the data set on HIV-1 (Human immunodeficiency virus 1, CCRF-CEM, dose 5.70 × 10^-5 Molar (Table 4), read-out: INFECTED RESPONSE Percent of Control) and 114% in data set [1] (uninfected cem cells, dose 5.70 × 10^-5 Molar (Table 4), read-out: UNINFECTED RESPONSE Percent of Control). For the same compound, in the data set with HIV-1, the Conclusion entry is “CONFIRMED ACTIVE”. In addition, the “conclusion / reported as anti-HIV drug” value in the data set with HIV-1 was “moderate”. In addition, in data set [1], the CC50 was determined as 14000 µM. Besides, in data set [1], the CC50 at 144 h turned out to be 14000 µM.

Regarding `CCCCCCCCCCCCCC(=O)OCC(COP(=O)(O)OC[C@@H]1CC[C@H](n2cc(C)c(=O)[nH]c2=O)O1)OC(=O)CCCCCCCCCCCCC` (stereo partly shown) [dimyristoylphosphatidylddT], the results for the IC50 in the data set with HIV-infected U937 and in the data set with HIV-infected CEM cells were 0.2 to 12 µM and 1.7 to 22 µM, respectively.

Regarding AZT dipalmitoylglycerol, the half-inhibitory concentration (IC50) in the data set with HIV-infected U937 is 0.2 to 12 µM; in the data set with HIV-infected CEM cells it was 1.7 to 22 µM.

Consider `CCCCCCCCCCCCCC(=O)OCC(COP(=O)(O)OC[C@H]1O[C@@H](n2cc(C)c(=O)[nH]c2=O)C[C@@H]1N=[N+]=[N-])OC(=O)CCCCCCCCCCCCC` (stereo partly shown) [Dimyristoyl-phosphatidylAZT], for which the results for the half-maximal inhibitory concentration (IC50) in the data set on HIV-infected U937 and in the data set on HIV-infected CEM cells were 0.2 to 12 µM and 1.7 to 22 µM, respectively.
